Assay results published in patent publication US20110173718A1, “HERBICIDE TOLERANT PLANTS” (SYNGENTA CROP PROTECTION, INC., priority 2008, published 2011).

Tests used:
[1] = target: T1, Arabidopsis HST (Arabidopsis thaliana, UniProt Q1ACB3); test: HST total extraction (non TLC) assay, recombinant Arabidopsis HST from insect cells; type: biochemical
T1 construct: GST (factor Xa cleavage site) (N); made in house; host or cells: Sf9 insect cells (baculovirus, pAcG3X), membrane fraction
T1 sequence (Q1ACB3 70-386): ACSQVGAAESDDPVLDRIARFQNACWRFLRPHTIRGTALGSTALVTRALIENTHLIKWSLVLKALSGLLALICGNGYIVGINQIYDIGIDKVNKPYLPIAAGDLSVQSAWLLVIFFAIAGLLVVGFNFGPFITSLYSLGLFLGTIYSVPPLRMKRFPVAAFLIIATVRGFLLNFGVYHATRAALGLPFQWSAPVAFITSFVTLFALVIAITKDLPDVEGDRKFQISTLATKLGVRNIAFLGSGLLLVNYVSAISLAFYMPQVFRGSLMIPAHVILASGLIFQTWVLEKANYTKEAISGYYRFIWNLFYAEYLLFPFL

[2] = test system: weeds; test: Glasshouse weed control, HST inhibitors alone and with A22, post-emergence; type: in vivo; settings: 336 h, 14 DAT, single replicate, read-out: % control score, Obs; for pest or weed control at 15.625 g/ha: 15.625 g/ha alone; for pest or weed control at 62.5 g/ha: 62.5 g/ha alone; for pest or weed control at 250 g/ha: 250 g/ha alone
Experimental: (§1) In a further test, the results of which are depicted in tables 18 and 19, weed seeds are planted out in trays containing 50% peat/50% John Innes no. 3 soil and grown in the glass house at 24-27 C day; 18-21 C night and approximately a 15 h photoperiod. Humidity is ˜65% and light levels at bench level are up to 2 mmol/m^2. Again all spray chemicals are dissolved in 0.2% X77 surfactant and sprayed from a boom on a track sprayer moving at 2 mph with the nozzle set about 2 inches above the plant tops. The spray volume is […]. Sprays are carried out both pre-emergence and post-emergence over small plants at about 7-12 d post-emergence. Plants are assessed at 14 DAT with herbicidal damage scored on a scale from 0 to 100%. The HPPD inhibiting herbicide is compound A22 (4-hydroxy-3-[[2-(2-methoxyethoxy)methyl]-6-(trifluoromethyl)-3-pyridinylicarbonyl]-bicyclo[3.2.1]oct-3-en-2-one) which is sprayed at 2 g/ha both alone and in mixture with various HST herbicides. Results and spray rates are depicted in Tables 18 and 19. Again the Colby formula has been used to calculate synergy scores observed following treatment with the mixture based on the results obtained with the single components alone. Positive synergy is observed between the HPPD herbicide and a wide variety of HST inhibitor herbicides applied both pre and postemergence across a variety of weeds.

[3] = test system: weeds; test: Glasshouse weed control, HST inhibitors alone and with A22, pre-emergence; type: in vivo; settings: 336 h, 14 DAT; for pest or weed control at 15.625 g/ha: HST inhibitor rate 15.625 g/ha; for pest or weed control at 62.5 g/ha: HST inhibitor rate 62.5 g/ha; for pest or weed control at 250 g/ha: HST inhibitor rate 250 g/ha
Experimental: as §1

[4] = BRAPL, read-out: BRAPL Obs, % control score
[5] = PANMI, read-out: PANMI Obs, % control score
[6] = SIDSP, read-out: SIDSP Obs, % control score
[7] = Digitaria sanguinalis, DIGSA, read-out: DIGSA Obs, % control score
[8] = Echinochloa crus-galli, ECHCG, read-out: ECHCG Obs, % control score
[9] = Setaria faberi, SETFA, read-out: SETFA Obs, % control score

Estimated IC50 (ppm) [1] [ppm]	SMILES	pest or weed control at 15.625 g/ha ([2]; BRAPL) [%]	pest or weed control at 62.5 g/ha ([2]; BRAPL) [%]	pest or weed control at 250 g/ha ([2]; BRAPL) [%]	pest or weed control at 15.625 g/ha ([2]; PANMI) [%]	pest or weed control at 62.5 g/ha ([2]; PANMI) [%]	pest or weed control at 250 g/ha ([2]; PANMI) [%]	pest or weed control at 15.625 g/ha ([2]; SIDSP) [%]	pest or weed control at 62.5 g/ha ([2]; SIDSP) [%]	pest or weed control at 250 g/ha ([2]; SIDSP) [%]	pest or weed control at 15.625 g/ha ([2]; Digitaria sanguinalis, DIGSA) [%]	pest or weed control at 62.5 g/ha ([2]; Digitaria sanguinalis, DIGSA) [%]	pest or weed control at 250 g/ha ([2]; Digitaria sanguinalis, DIGSA) [%]	pest or weed control at 15.625 g/ha ([2]; Echinochloa crus-galli, ECHCG) [%]	pest or weed control at 62.5 g/ha ([2]; Echinochloa crus-galli, ECHCG) [%]	pest or weed control at 250 g/ha ([2]; Echinochloa crus-galli, ECHCG) [%]	pest or weed control at 15.625 g/ha ([2]; Setaria faberi, SETFA) [%]	pest or weed control at 62.5 g/ha ([2]; Setaria faberi, SETFA) [%]	pest or weed control at 250 g/ha ([2]; Setaria faberi, SETFA) [%]	pest or weed control at 15.625 g/ha [3, 4] [%]	also measured
78	Cn1c(=O)c(-c2c(Cl)cccc2C(F)(F)F)c(O)c2nccnc21 [Compound 2.16]	10	30	70	5	40	70	5	40	50	0	2	40	2	15	50	1	30	65	0	pest or weed control at 62.5 g/ha [3, 4]: 5%; pest or weed control at 250 g/ha [3, 4]: 50%; pest or weed control at 15.625 g/ha [3, 5]: 0%; pest or weed control at 62.5 g/ha [3, 5]: 0%; pest or weed control at 250 g/ha [3, 5]: 40%; pest or weed control at 15.625 g/ha [3, 6]: 0%; pest or weed control at 62.5 g/ha [3, 6]: 0%; pest or weed control at 250 g/ha [3, 6]: 0%; pest or weed control at 15.625 g/ha [3, 7]: 0%; pest or weed control at 62.5 g/ha [3, 7]: 0%; pest or weed control at 250 g/ha [3, 7]: 0%; pest or weed control at 15.625 g/ha [3, 8]: 0%; pest or weed control at 62.5 g/ha [3, 8]: 15%; pest or weed control at 250 g/ha [3, 8]: 60%; pest or weed control at 15.625 g/ha [3, 9]: 0%; pest or weed control at 62.5 g/ha [3, 9]: 10%; pest or weed control at 250 g/ha [3, 9]: 45%
38	O=c1c(-c2c(F)ccc(F)c2Cl)c(O)c2nccnc2n1CC(F)(F)F [Compound 2.17]	1	15	50	0	10	55	5	15	50	0	5	50	0	5	40	0	10	40	0	pest or weed control at 62.5 g/ha [3, 4]: 0%; pest or weed control at 250 g/ha [3, 4]: 2%; pest or weed control at 15.625 g/ha [3, 5]: 0%; pest or weed control at 62.5 g/ha [3, 5]: 0%; pest or weed control at 250 g/ha [3, 5]: 0%; pest or weed control at 15.625 g/ha [3, 6]: 0%; pest or weed control at 62.5 g/ha [3, 6]: 0%; pest or weed control at 250 g/ha [3, 6]: 0%; pest or weed control at 15.625 g/ha [3, 7]: 0%; pest or weed control at 62.5 g/ha [3, 7]: 0%; pest or weed control at 250 g/ha [3, 7]: 0%; pest or weed control at 15.625 g/ha [3, 8]: 0%; pest or weed control at 62.5 g/ha [3, 8]: 0%; pest or weed control at 250 g/ha [3, 8]: 10%; pest or weed control at 15.625 g/ha [3, 9]: 0%; pest or weed control at 62.5 g/ha [3, 9]: 0%; pest or weed control at 250 g/ha [3, 9]: 10%
